Results published in patent publication US20080248008A1, “Inhibitors of Protein Kinase a Anchoring” (priority 2004, published 2008).

Legend:
RI (A98S) = biological target: T1, RI (A98S) (Bos taurus, UniProt P00514, A98S); test: R-overlay (solid-phase binding) of 32P-labelled RI on membrane-synthesized peptides; parameters: species or system bovine
T1 construct: made in house; host or cells: E. coli BL21 (B121 [sic])
Description: Autospot Peptide Array. Peptide arrays were synthesized on cellulose paper by using an Autospot Robot ASP222 (ABiMED, Langenfeld, Germany) as described (Frank, R., 1992, Tetrahedron 48, 123-132) or Multipep automated peptide synthesizer (INTAVIS Bioanalytical Instruments AG, Koeln, Germany) as described (Frank, R., 1992, Tetrahedron 48, 123-132).
R-overlay. R-overlays were conducted as described, using ^32P-labeled recombinant murine RII (Hausken, Z. E., et al., 1998 in Protein Targeting Protocols, ed. Clegg, R. A. (Humana, Totowa, N.J.), Vol. 88, pp. 47-64) or recombinant bovine RI (A98S) or by cold RI-overlay where bound RIα was detected by Western blot. Cold RI-overlay was performed by incubating the membranes with 250 nM RI overnight at 4° C., then the membranes were washed five times in TBST for 5 min. Detection of RI was performed using an anti-RI rabbit polyclonal antibody (Santa Cruz) at a concentration of 0.2 μg/μl for 1 hour at 4° C. Then the membranes were washed five times for 5 minutes in PBS followed by incubation with HRP-conjugated anti-rabbit IgGs (1:5000) for 1 hour at 4° C. The membranes were washed in PBS as described above before detection by Supersignal West Dura Extended Duration Substrate (Pierce).
Densitometric analysis. The densitometric analysis was performed using Scion Image (www.scioncorp.com) (Scion Coorperation, Mo., USA) or Quantity One version 4.5.0, (BioRad).

Csk-PS364 = test: Csk phosphoserine 364 level in forskolin-stimulated T cells; type: cell-based, human; conditions: 25 μM, 12 hours
Description: Antibodies. RI or RII were immunoprecipitated with polyclonal antibodies against human RI or human RII at a 3 μg/ml dilution (Santa Cruz Biotechnology). MEME3 or scrambled peptide was immunoprecipitated with 1.5 μl of anti-GFP antiserum (Invitrogen). Monoclonal (Transduction laboratories) or polyclonal antibodies (Santa Cruz Biotechnology) against human RIα and RIIα were used at a 1 μg ml^−1 or 0.5 μg ml^−1 ilution for Western blotting. Polyclonal antibodies against human Cα (Santa Cruz Biotechnology) and LAT (Upstate Biotechnology) were used at a 0.4 μg ml^−1 and a 1 μg ml^−1 dilution for Western blotting, respectively. Polyclonal antibodies against LckPY505 (Cell Signaling) were used at a 1:1000 dilution and polyclonal antibody raised towards PS364 in Csk were used as previously described (Yaqub et al., Biochem. J., 372: p 271-8, 2003). Polyclonal antibodies against StAR (Affinity BioReagents) were used at 1 μg ml^−1. […]
Peripheral blood T cells were treated with 25 μM M3-Arg11 or mock treated for 12 hours and stimulated with forskolin to activate the PKA-Csk inhibitory pathway. Subsequently, cell lysates were subjected to […], blotting onto a PVDF membranes and the Csk phosphoserine 364 levels were assessed by immunoblotting using phosphospecific antibodies to Csk-PS364 (FIG. 19, upper panel).

StAR = StAR protein level in Y1 adrenal cells (immunoblot densitometry); type: cell-based, mouse
Description: Progesterone production and StAR protein level. Y1 cells were cultured overnight in 6-well plates at the density of 1.5×10^6 cells per well. To increase the basal level of StAR, the cells were pre-stimulated with 10 μM forskolin for 1 hour, washed twice with medium, before peptide loading. Thereafter, the cells were loaded with 50 μM of the arginine-coupled peptide for 5 hours before being treated with 5 μg/ml Actinomyocin D (Cat. No. A-9415, Sigma) for 30 min and stimulated with 10 μM forskolin (Cat. No. 344270, Calbiochem) or 10 IU/ml ACTH (Cat. No. A-6303, Sigma) for 12 hours. Media from cultures with different treatments were collected and diluted with plain medium to fall into the standard curves for the assay. Progesterone in the cell medium was measured by using either Spectria Progesterone RIA (Cat. No. 68521, Orion Diagnostica, Espoo, Finland) or DELFIA progesterone kit (Cat. No. A066-101, PerkinElmer) following the conditions recommended by the manufacture. The cells were lysed and the StAR protein was analysed by western blotting and the level measured by densiometric analysis.
StAR protein levels in the samples from Example 28 were analysed by immunoblotting. StAR consists of a 37-kDa precursor form containing an N-terminal mitochondrial targeting sequence and a processed 30-kDa mature protein (Epstein and Ormejohnson, 1991; Stocco and Sodeman, 1991). Y1 adrenal cells expressed a low basal level of StAR (FIG. 27, upper panel, lane 1). Upon forskolin stimulation, a significant increase in mature StAR protein (lane 2) occurred consistent with an increase in cholesterol transport over the mitochondrial membrane and a corresponding increase in steroid biosynthesis (bar diagram in FIG. 26). The forskolin-stimulated levels of StAR protein were reduced by 60% in MEME3-Arg11 treated cells (lane 5 and lower panel). In contrast, treatment with SM3-Arg11 reduced StAR levels by […] (lane 8, and lower panel). Thus, MEME3-Arg11 reduced StAR levels by […] as SM3-Arg11. […]

T1 sequence (P00514 whole entry A98S): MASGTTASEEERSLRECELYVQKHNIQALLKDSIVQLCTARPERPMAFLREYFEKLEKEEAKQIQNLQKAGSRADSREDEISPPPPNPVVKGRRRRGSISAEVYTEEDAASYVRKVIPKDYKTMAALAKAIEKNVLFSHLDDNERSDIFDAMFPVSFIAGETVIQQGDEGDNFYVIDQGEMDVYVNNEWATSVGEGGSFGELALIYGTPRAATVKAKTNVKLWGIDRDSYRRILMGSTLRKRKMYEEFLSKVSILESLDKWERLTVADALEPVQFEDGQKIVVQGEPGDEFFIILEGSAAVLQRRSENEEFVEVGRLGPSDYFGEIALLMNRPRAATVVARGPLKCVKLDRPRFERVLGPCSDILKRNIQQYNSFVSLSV

Compound	competition of RI-binding to membrane-bound MEME3 (RI (A98S); 500 nM peptide in solution)	affinity for RI compared to that of PDSM (RI (A98S); densitometry of autoradiographs, n=3, higher) [times]	RI binding (RI-32P-overlay, autoradiography) (RI (A98S); peptides on membrane, qualitative)	reduction of Csk-PS364 level (Csk-PS364) [%]	reduction of StAR levels relative to SM3-Arg11 (StAR)	reduction of forskolin-stimulated levels of StAR protein (StAR; forskolin) [%]	basal StAR level (StAR; unstimulated)
CC[C@H](C)[C@H](NC(=O)[C@H](CCC(N)=O)NC(=O)[C@H](CC(=O)O)NC(=O)[C@H](C)NC(=O)[C@H](CC(C)C)NC(=O)[C@H](CCC(N)=O)NC(=O)[C@H](CC(N)=O)NC(=O)[C@H](C)NC(=O)[C@H](Cc1ccc(O)cc1)NC(=O)[C@H](CCC(N)=O)NC(=O)[C@H](CCC(=O)O)NC(=O)[C@@H](N)CC(C)C)C(=O)N[C@H](C(=O)N[C@@H](CCCCN)C(=O)N[C@@H](CCC(=O)O)C(=O)N[C@@H](C)C(=O)N[C@H](C(=O)N[C@@H](CCC(=O)O)C(=O)N[C@@H](CCCCNC(=O)c1ccc2c(c1)C(=O)OC21c2ccc(O)cc2Oc2cc(O)ccc21)C(N)=O)[C@@H](C)O)[C@@H](C)CC [MEME3]	competed the RI-binding	1.9	bound with high affinity to RIα	–	–	–	–
LEQYANQLADQIIKEATERRRRRRRRRrr [MEME3-Arg11]	–	–	–	70	twice as much	60	somewhat higher basal StAR level
